Tested on: Eschericia coli (E. coli) strain ATCC25922
Test: Standard microdilution assay, MIC against E. coli ATCC25922
Type: cell-based
Details: Escherichia coli; E. coli strain ATCC25922, standard microdilution assay; cutoff 16 micrograms/mL; read-out: MIC E. Coli
Method: The in vitro activity of the compounds of the present invention can be determined. Antimicrobial testing is typically performed to determine the minimum inhibitory concentration (MIC). Minimum inhibitory concentrations (MICs) are determined by the microdilution method in a final volume of 100 μl according to protocols outlined by The Clinical and Laboratory Standards Institute (CLSI). Performance standards for reference strains are assessed within the same experimental design to maintain quality control. See, for example, Clinical Laboratory Standards Institute: Methods for dilution antimicrobial susceptibility tests for bacteria that grow aerobically M7-A8. Approved Standard-Eighth Edition. Wayne, Pa.: CLSI; December 2008; and Clinical Laboratory Standards Institute: Performance Standards for Antimicrobial Susceptibility Testing M100-S20; Approved Standard-Twentieth Edition. Wayne, Pa.: CLSI; June 2010.
The compounds of the present invention were tested for antimicrobial activity. The Compounds 1-582 were run against Eschericia coli (E. coli) strain ATCC25922 and Compounds 320-582 were run against Staphylococcus aureus (S. aureus) 11540 strain using a standard microdilution assay to determine minimum inhibitory concentrations (MICs). […] It will be recognized by one skilled in the art that the compounds can be assessed against other bacterial organisms and that the presentation of data for activity against Eschericia coli and Staphylococcus aureus are illustrative and in no way is intended to limit the scope of the present invention. The compounds of the present invention can be assayed against a range of other microorganisms depending upon the performance activity desired to be gathered. Furthermore, the “+” and “−” representation and the selection of a cutoff value of 16 micrograms/mL is also illustrative and in no way is intended to limit the scope of the present invention.

Structure (SMILES)	MIC [µg/mL]
C=CC[C@@H](NCCCNC(=N)N)c1ccc(-n2cc3cc(-c4cc(CCC[C@H](C)N)cc(SC(F)(F)F)c4)[nH]c3nc2=O)cc1 [Compound 1]	< 16
C[C@H](N)CCCc1cc(Cl)c(F)c(-c2cc3cn(-c4ccc([C@@H](CCN)NCCCNC(=N)N)cc4)c(=O)nc3[nH]2)c1 [Compound 2]	< 16
C=CC[C@@H](NCCCNC(=N)N)c1ccc(-n2cc3cc(-c4cc(CCC[C@H](C)N)cc(Cl)c4F)[nH]c3nc2=O)cc1 [Compound 3]	< 16
C=CC[C@@H](NCCCNC(=N)N)c1ccc(-n2cc3cc(-c4cc(CCC[C@H](C)N)cc(C(F)(F)F)c4)[nH]c3nc2=O)cc1 [Compound 4]	< 16
COc1ccc([C@H](NCCCNC(=N)N)c2ccc(-n3cc4cc(-c5cc(CCC[C@H](C)N)cc(Cl)c5F)[nH]c4nc3=O)cc2)cc1 [Compound 5]	< 16
C[C@H](N)CCCc1cc(-c2cc3cn(-c4ccc([C@@H](CCN)NCCCNC(=N)N)cc4)c(=O)nc3[nH]2)cc(C(F)(F)F)c1 [Compound 6]	< 16
C[C@H](N)CCCc1cc(SC(F)(F)F)cc(-c2cc3cn(-c4ccc([C@@H](CCN)NCCCNC(=N)N)cc4)c(=O)nc3[nH]2)c1 [Compound 7]	< 16
COc1ccc([C@H](c2ccc(SC)cc2)c2ccc(-n3cc4cc(-c5cc(CCC[C@H](C)N)cc(SC(F)(F)F)c5)[nH]c4nc3=O)cc2)cc1 [Compound 8]	> 16
COc1ccc([C@@H](c2ccc(SC)cc2)c2ccc(-n3cc4cc(-c5cc(CCC[C@H](C)N)cc(SC(F)(F)F)c5)[nH]c4nc3=O)cc2)cc1 [Compound 9]	> 16
C[C@H](N)CCCc1cc(-c2cc3cn(-c4ccc([C@H](C)NCCCNC(=N)N)cc4)c(=O)nc3[nH]2)c(F)cc1Cl [Compound 10]	< 16
C=CC[C@H](NCCCNC(=N)N)c1ccc(-n2cc3cc(-c4cc(CCC[C@H](C)N)cc(SC(F)(F)F)c4)[nH]c3nc2=O)cc1 [Compound 11]	< 16
C[C@H](N)CCCc1cc(Cl)c(F)c(-c2cc3cn(-c4ccc([C@@H](NCCCNC(=N)N)C(=O)N5CCNCC5)cc4)c(=O)nc3[nH]2)c1 [Compound 12]	< 16
C[C@H](N)CCCc1cc(-c2cc3cn(-c4ccc([C@@H](NCCCNC(=N)N)C(=O)N5CCNCC5)cc4)c(=O)nc3[nH]2)cc(C(F)(F)F)c1 [Compound 13]	< 16
C[C@H](N)CCCc1cc(SC(F)(F)F)cc(-c2cc3cn(-c4ccc([C@@H](NCCCNC(=N)N)C(=O)N5CCNCC5)cc4)c(=O)nc3[nH]2)c1 [Compound 14]	< 16
C[C@H](N)CCCc1cc(Cl)c(F)c(-c2cc3cn(-c4ccc([C@H](CCO)NCCCNC(=N)N)cc4)c(=O)nc3[nH]2)c1 [Compound 15]	< 16
C[C@H](N)CCCc1cc(-c2cc3cn(-c4ccc([C@H](CCO)NCCCNC(=N)N)cc4)c(=O)nc3[nH]2)cc(C(F)(F)F)c1 [Compound 16]	< 16
COc1ccc([C@H](NCCCNC(=N)N)c2ccc(-n3cc4cc(-c5cc(CCC[C@H](C)N)cc(C(F)(F)F)c5)[nH]c4nc3=O)cc2)cc1 [Compound 17]	< 16
C[C@H](N)CCCc1cc(-c2cc3cn(-c4ccc([C@H](CCN)NCCCNC(=N)N)cc4)c(=O)nc3[nH]2)cc(C(F)(F)F)c1 [Compound 18]	< 16
C[C@H](N)CCCc1cc(Cl)c(F)c(-c2cc3cn(-c4ccc([C@H](CCN)NCCCNC(=N)N)cc4)c(=O)nc3[nH]2)c1 [Compound 19]	< 16
C[C@H](NCCCNC(=N)N)c1ccc(-n2cc3cc(-c4cc([C@H](O)CC[C@@H](C)N)cc(C(F)(F)F)c4)[nH]c3nc2=O)cc1 [Compound 20]	< 16
C[C@H](N)CC[C@@H](O)c1cc(-c2cc3cn(-c4ccc([C@H](C)NCCCNC(=N)N)cc4)c(=O)nc3[nH]2)cc(C(F)(F)F)c1 [Compound 21]	< 16
CC(N)CC[C@@H](O)c1cc(-c2cc3cn(-c4ccc([C@H](C)NCCCNC(=N)N)cc4)c(=O)nc3[nH]2)cc(C(F)(F)F)c1 (some centres unmarked) [Compound 22]	< 16
C[C@H](N)CCCc1cc(SC(F)(F)F)cc(-c2cc3cn(-c4ccc([C@H](CCN)NCCCNC(=N)N)cc4)c(=O)nc3[nH]2)c1 [Compound 23]	< 16
C[C@H](N)CCCc1cc(SC(F)(F)F)cc(-c2cc3cn(-c4ccc([C@H](CCO)NCCCNC(=N)N)cc4)c(=O)nc3[nH]2)c1 [Compound 24]	< 16
C[C@H](N)CCCc1cc(SC(F)(F)F)cc(-c2cc3cn(-c4ccc([C@@H](NCCCNC(=N)N)c5ccc(O)cc5)cc4)c(=O)nc3[nH]2)c1 [Compound 25]	< 16

Structure (SMILES)	MIC [µg/mL]
C[C@H](N)CCCc1cc(Cl)c(F)c(-c2cc3cn(-c4ccc([C@@H](NCCCNC(=N)N)c5ccc(O)cc5)cc4)c(=O)nc3[nH]2)c1 [Compound 26]	< 16
C[C@H](N)CCCc1cc(Cl)cc(-c2cc3cn(-c4ccc([C@H](C)NCCCNC(=N)N)cc4)c(=O)nc3[nH]2)c1 [Compound 27]	< 16
COCC[C@H](NCCCNC(=N)N)c1ccc(-n2cc3cc(-c4cc(CCC[C@H](C)N)cc(C(F)(F)F)c4)[nH]c3nc2=O)cc1 [Compound 28]	< 16
COCC[C@H](NCCCNC(=N)N)c1ccc(-n2cc3cc(-c4cc(CCC[C@H](C)N)cc(Cl)c4F)[nH]c3nc2=O)cc1 [Compound 29]	< 16
COCC[C@H](NCCCNC(=N)N)c1ccc(-n2cc3cc(-c4cc(CCC[C@H](C)N)cc(SC(F)(F)F)c4)[nH]c3nc2=O)cc1 [Compound 30]	< 16
C[C@H](NCCCNC(=N)N)c1ccc(-n2cc3cc(-c4cc(CCC[C@@H](N)CO)cc(SC(F)(F)F)c4)[nH]c3nc2=O)cc1 [Compound 31]	< 16
C[C@H](N)CCCc1cc(Cl)c(F)c(-c2cc3cn(-c4ccc([C@@H](NCCCNC(=N)N)C(N)=O)cc4)c(=O)nc3[nH]2)c1 [Compound 32]	< 16
Cc1cc(F)c(-c2cc3cn(-c4ccc([C@H](C)NCCCNC(=N)N)cc4)c(=O)nc3[nH]2)cc1CCC[C@H](C)N [Compound 33]	< 16
C[C@H](N)CC[C@@H](O)c1cc(OC(F)(F)F)cc(-c2cc3cn(-c4ccc([C@H](C)NCCCNC(=N)N)cc4)c(=O)nc3[nH]2)c1 [Compound 34]	< 16
N=C(N)NCCCNCc1ccc(-n2cc3cc(-c4cc(OC(F)(F)F)cc([C@H]5C[C@H](N)CCO5)c4)[nH]c3nc2=O)cc1 [Compound 35]	< 16
C[C@H](NCCCNC(=N)N)c1ccc(-n2cc3cc(-c4cc(OC(F)(F)F)cc([C@H]5C[C@H](N)CCO5)c4)[nH]c3nc2=O)cc1 [Compound 36]	< 16
N=C(N)NCCCNCc1ccc(-n2cc3cc(-c4cc(C[C@H]5C[C@H](N)CCO5)cc(OC(F)(F)F)c4)[nH]c3nc2=O)cc1 [Compound 37]	< 16
C[C@H](NCCCNC(=N)N)c1ccc(-n2cc3cc(-c4cc(C[C@H]5C[C@H](N)CCO5)cc(OC(F)(F)F)c4)[nH]c3nc2=O)cc1 [Compound 38]	< 16
C[C@H](N)CCCc1cc(Cl)c(F)c(-c2cc3cn(-c4ccc([C@@H](NCCCNC(=N)N)c5ccc(S(C)(=O)=O)cc5)cc4)c(=O)nc3[nH]2)c1 [Compound 39]	< 16
C[C@H](N)CCCc1cc(SC(F)(F)F)cc(-c2cc3cn(-c4ccc([C@@H](NCCCNC(=N)N)c5ccc(S(C)(=O)=O)cc5)cc4)c(=O)nc3[nH]2)c1 [Compound 40]	< 16
COc1ccc(Cn2cc(C[C@H](NCCCNC(=N)N)c3ccc(-n4cc5cc(-c6cc(CCC[C@H](C)N)cc(Cl)c6F)[nH]c5nc4=O)cc3)nn2)cc1 [Compound 41]	< 16
COc1ccc(Cn2cc(C[C@H](NCCCNC(=N)N)c3ccc(-n4cc5cc(-c6cc(CCC[C@H](C)N)cc(C(F)(F)F)c6)[nH]c5nc4=O)cc3)nn2)cc1 [Compound 42]	< 16
COc1ccc(Cn2cc(C[C@H](NCCCNC(=N)N)c3ccc(-n4cc5cc(-c6cc(CCC[C@H](C)N)cc(SC(F)(F)F)c6)[nH]c5nc4=O)cc3)nn2)cc1 [Compound 43]	< 16
C[C@H](N)CCCc1cc(Cl)c(F)c(-c2cc3cn(-c4ccc([C@@H](CO)NCCCNC(=N)N)cc4)c(=O)nc3[nH]2)c1 [Compound 44]	< 16
C[C@H](N)CCCc1cc(SC(F)(F)F)cc(-c2cc3cn(-c4ccc([C@@H](CO)NCCCNC(=N)N)cc4)c(=O)nc3[nH]2)c1 [Compound 45]	< 16
C[C@H](N)CCCc1cc(Cl)c(F)c(-c2cc3cn(-c4ccc([C@H](Cc5c[nH]nn5)NCCCNC(=N)N)cc4)c(=O)nc3[nH]2)c1 [Compound 46]	< 16
C[C@H](N)CCCc1cc(-c2cc3cn(-c4ccc([C@H](Cc5c[nH]nn5)NCCCNC(=N)N)cc4)c(=O)nc3[nH]2)cc(C(F)(F)F)c1 [Compound 47]	< 16
C[C@H](N)CCCc1cc(SC(F)(F)F)cc(-c2cc3cn(-c4ccc([C@H](Cc5c[nH]nn5)NCCCNC(=N)N)cc4)c(=O)nc3[nH]2)c1 [Compound 48]	< 16
N=C(N)NCCCNCc1ccc(-n2cc3cc(-c4ccc(C(=O)NCc5csc(N6CCOCC6)n5)cc4)[nH]c3nc2=O)cc1 [Compound 49]	< 16
N=C(N)NCCCNCc1ccc(-n2cc3cc(-c4ccc(/C=C/C5CN(C(=N)N)C5)cc4)[nH]c3nc2=O)cc1 [Compound 50]	< 16
